In patent US4281136A, “2-Alkyl-3-haloisothiazolium salts and their derivatives” (Givaudan Corporation, priority 1978, dated 1981):
Converted amounts (≈) assume the structure as drawn. Like-named read-outs stand apart in the source and are kept apart here.

System: Ps. aeruginosa
Assay: preservative for cutting oil emulsions
Format: cell-based
Conditions: for Minimum Inhibitory Concentration: listed as CH3, Cl, H; for MIC: Pseudomonas aeruginosa
Method: Various aliquots of a 6% solution of the chemical in ethanol were added to cutting oil emulsions prepared by diluting Kutwell 30 cutting oil concentrate 1 to 30 with water. These samples were inoculated with a culture of Ps. aeruginosa and incubated at 28° on a rotary shaker. At weekly intervals the samples were examined for microorganisms and then reinoculated and incubated.

[1] = 168 h, read-out: Minimum Inhibitory Concentration, cutting oil emulsion, incubation 1 week, 28°
[2] = 336 h, read-out: Minimum Inhibitory Concentration, cutting oil emulsion, incubation 2 weeks, 28°
[3] = 504 h, read-out: Minimum Inhibitory Concentration, cutting oil emulsion, incubation 3 weeks, 28°
[4] = 672 h, read-out: Minimum Inhibitory Concentration, cutting oil emulsion, incubation 4 weeks, 28°
[5] = 168 h, cutting oil emulsion, incubation 1 week, 28°, read-out: Minimum Inhibitory Concentration
[6] = 336 h, cutting oil emulsion, incubation 2 weeks, 28°, read-out: Minimum Inhibitory Concentration
[7] = 504 h, cutting oil emulsion, incubation 3 weeks, 28°, read-out: Minimum Inhibitory Concentration
[8] = 672 h, cutting oil emulsion, incubation 4 weeks, 28°, read-out: Minimum Inhibitory Concentration

Row | MIC [5] [µg/mL] | MIC [6] [µg/mL] | MIC [7] [µg/mL] | MIC [8] [µg/mL] | SMILES | further results
1 |  |  |  |  | C[n+]1sccc1Cl [No. 16 (Table I)] | Minimum Inhibitory Concentration (cutting oil emulsion, incubation 1 week, 28°, SbCl6): 8 µg/mL; Minimum Inhibitory Concentration (cutting oil emulsion, incubation 2 weeks, 28°, SbCl6): 16 µg/mL; Minimum Inhibitory Concentration (cutting oil emulsion, incubation 3 weeks, 28°, SbCl6): 16 µg/mL; Minimum Inhibitory Concentration (cutting oil emulsion, incubation 4 weeks, 28°, SbCl6): 16 µg/mL
2 |  |  |  |  | C[n+]1sccc1Cl [No. 17 (Table I)] | Minimum Inhibitory Concentration (cutting oil emulsion, incubation 1 week, 28°, PF6): 32 µg/mL; Minimum Inhibitory Concentration (cutting oil emulsion, incubation 2 weeks, 28°, PF6): 32 µg/mL; Minimum Inhibitory Concentration (cutting oil emulsion, incubation 3 weeks, 28°, PF6): 32 µg/mL; Minimum Inhibitory Concentration (cutting oil emulsion, incubation 4 weeks, 28°, PF6): 32 µg/mL
3 |  |  |  |  | CC[n+]1sccc1Cl [No. 18 (Table I), 3-Chloro-2-ethylisothiazolium ethylsulfate] | MIC [1]: 125 µg/mL; MIC [2]: 125 µg/mL; MIC [3]: 125 µg/mL; MIC [4]: 500 µg/mL
4 |  |  |  |  | CCC[n+]1sccc1Cl [No. 20 (Table I)] | MIC [1]: 125 µg/mL; MIC [2]: 250 µg/mL; MIC [3]: 250 µg/mL; MIC [4]: 500 µg/mL
5 |  |  |  |  | C[n+]1scc(Cl)c1Cl [No. 23 (Table I)] | Minimum Inhibitory Concentration (cutting oil emulsion, incubation 3 weeks, 28°, Cl, O3SOMe): 32 µg/mL; Minimum Inhibitory Concentration (cutting oil emulsion, incubation 4 weeks, 28°, Cl, O3SOMe): 32 µg/mL
6 | 125 | 250 | 250 | 250 | CCOC(=O)c1s[n+](C)c(Cl)c1Cl [No. 24 (Table I), 3,4-Dichloro-2-methyl-5-ethoxycarbonylisothiazolium fluorosulfonate] | 
7 | < 16 | 125 | 250 | 250 | C[n+]1sc(C#N)c(Cl)c1Cl [No. 25 (Table I), 5-Cyano-3,4-dichloro-2-methylisothiazolium fluorosulfonate] | 
8 |  |  |  |  | Cc1s[n+](C)c(Cl)c1Cl [No. 27 (Table I), 3,4-Dichloro-2,5-dimethylisothiazolium fluorosulfonate] | MIC [1]: 125 µg/mL; MIC [2]: 250 µg/mL; MIC [3]: 500 µg/mL; MIC [4]: 500 µg/mL
9 | 125 | 500 | 500 | 500 | C[n+]1scc([N+](=O)[O-])c1Cl [No. 28 (Table I)] | 
10 | 125 (≈ 705 µM) | 250 (≈ 1410 µM) | 250 (≈ 1410 µM) | 500 (≈ 2820 µM) | CCN1SC=CC1=C(C#N)C#N [drawing 12 CH2CH3, H, H] | 
11 | 250 (≈ 1180 µM) | 500 (≈ 2360 µM) | 500 (≈ 2360 µM) | 1000 (≈ 4720 µM) | CC1=C(Cl)C(=C(C#N)C#N)N(C)S1 [drawing 12 CH3, Cl, CH3] | 
12 | 62 (≈ 278 µM) | 250 (≈ 1120 µM) | 250 (≈ 1120 µM) | 250 (≈ 1120 µM) | CN1SC(C#N)=C(Cl)C1=C(C#N)C#N [drawing 12 CH3, Cl, CN] | 
13 | 125 (≈ 463 µM) | 125 (≈ 463 µM) | 125 (≈ 463 µM) | 125 (≈ 463 µM) | CCOC(=O)C1=C(Cl)C(=C(C#N)C#N)N(C)S1 [drawing 12 CH3, Cl, COOEt, 4-Chloro-3-dicyanomethylene-5-ethoxycarbonyl-2-methyl-4-isothiazoline] | 
14 | < 32 | < 32 | < 32 | < 32 | CN1SC=C(Cl)C1=C(C#N)C#N [drawing 12 CH3, Cl, H] | 
15 | 250 (≈ 1530 µM) | 500 (≈ 3060 µM) | 500 (≈ 3060 µM) | 500 (≈ 3060 µM) | CN1SC=CC1=C(C#N)C#N [drawing 12 CH3, H, H] | 
